# In patent publication US6432988B1, “2-arylalkylthio -imidazoles, 2-arylalkenyl -thio -imidazoles and 2-arylalkinyl -thio -imidazoles as anti -inflammatory substances and substances inhibiting the release of cytokine” (Merckle GmbH, priority 1998, dated 2002):
# Tests used:
# [1] = target: T1, Cyclooxygenase-1 (COX-1) (Homo sapiens, UniProt P23219); test: Inhibition of cyclooxygenase-1: prostaglandin E2 formed by human platelets after calcium ionophore, ELISA; assay type: cell-based; conditions: PGE2 ELISA
# T1 construct: endogenous in cells; host or cells: human platelets
# T1 sequence (P23219 24-599): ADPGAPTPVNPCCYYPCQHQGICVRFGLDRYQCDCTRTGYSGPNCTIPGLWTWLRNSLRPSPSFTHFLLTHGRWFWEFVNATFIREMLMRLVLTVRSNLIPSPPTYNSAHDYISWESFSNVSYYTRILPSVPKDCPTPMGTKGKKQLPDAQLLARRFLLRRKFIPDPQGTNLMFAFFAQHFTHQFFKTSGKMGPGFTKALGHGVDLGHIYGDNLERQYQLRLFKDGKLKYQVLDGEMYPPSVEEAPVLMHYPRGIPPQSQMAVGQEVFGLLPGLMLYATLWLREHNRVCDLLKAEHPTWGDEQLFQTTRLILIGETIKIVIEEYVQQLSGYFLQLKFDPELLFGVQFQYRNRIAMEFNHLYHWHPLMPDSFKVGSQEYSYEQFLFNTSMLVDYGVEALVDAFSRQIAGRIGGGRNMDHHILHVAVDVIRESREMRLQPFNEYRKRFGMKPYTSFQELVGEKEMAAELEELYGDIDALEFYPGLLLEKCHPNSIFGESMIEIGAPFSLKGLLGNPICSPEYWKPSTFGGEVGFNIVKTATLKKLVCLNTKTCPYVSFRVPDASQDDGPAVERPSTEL
# Experimental: Test System for Determining the Inhibition of Cyclooxygenase-1 (COX-1)
# In this test system, the amount of prostaglandin E2 formed by human platelets after addition of calcium ionophore is determined by means of ELISA. The platelets are obtained here after centrifugation on a discontinuous Percoll® gradient. The enzyme reaction and the determination of the metabolites formed are in principle carried out as in the determination of the inhibition of 5-lipoxygenase. Differences exist with respect to the incubation time. Furthermore, the addition of a thromboxane synthase inhibitor is necessary (see Arch. Pharm. Pharm. Med. Chem. 330, 307-312 (1997)).
# [2] = test system: IL-1β; test: Inhibition of LPS-stimulated cytokine secretion in human PBMC (IL-1β); assay type: cell-based; conditions: LPS 1 μg/ml, 24 h
# Experimental: (§1) Test System for Determining the Inhibition of LPS-stimulated Cytokine Secretion (TNF-α, IL-1β)
# (§2) Human PBMC (peripheral blood mononuclear cells) are preincubated with test substance for 5 min at 37° C., then stimulated with LPS (1 μg/ml) for 24 h at 37° C. The cytokines TNF-α, IL-1β, IL-6 and IL-8 are Determined by means of ELISA (see Blood 75, 40-47 (1990)).
# [3] = test system: TNF-α; test: Inhibition of LPS-stimulated cytokine secretion in human PBMC (TNF-α); assay type: cell-based; conditions: LPS 1 μg/ml, 24 h, read-out: TNFα, PBMC (IC50 values)
# Experimental: as §1, §2
# [4] = target: T2, Cyclooxygenase-2 (COX-2) (Ovis aries, UniProt P79208); test: Inhibition of cyclooxygenase-2: COX-2 from sheep placenta, arachidonic acid, PGE2 by ELISA; assay type: biochemical; conditions: arachidonic acid 5 μm
# T2 construct: COX-2 (from sheep placenta) is preincubated with test substance for 10 min at 4° C; from tissue; host or cells: sheep placenta
# T2 sequence (P79208 17-603): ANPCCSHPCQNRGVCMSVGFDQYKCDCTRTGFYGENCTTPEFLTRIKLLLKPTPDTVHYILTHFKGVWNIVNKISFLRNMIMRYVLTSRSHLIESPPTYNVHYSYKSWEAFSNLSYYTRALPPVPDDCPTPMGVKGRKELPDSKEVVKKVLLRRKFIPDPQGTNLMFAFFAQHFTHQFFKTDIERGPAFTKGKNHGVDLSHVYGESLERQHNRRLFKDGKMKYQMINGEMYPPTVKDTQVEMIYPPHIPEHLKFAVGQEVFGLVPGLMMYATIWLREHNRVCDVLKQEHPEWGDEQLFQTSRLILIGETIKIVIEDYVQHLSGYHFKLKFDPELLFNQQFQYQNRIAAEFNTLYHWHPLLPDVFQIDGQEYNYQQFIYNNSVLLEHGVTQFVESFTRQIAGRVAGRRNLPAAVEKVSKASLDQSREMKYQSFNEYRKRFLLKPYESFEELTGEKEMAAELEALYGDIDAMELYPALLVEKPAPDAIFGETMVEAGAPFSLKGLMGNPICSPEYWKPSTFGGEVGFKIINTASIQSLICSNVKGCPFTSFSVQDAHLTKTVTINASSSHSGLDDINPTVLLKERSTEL
# Experimental: Test System for Determining the Inhibition of Cyclooxygenase-2 (COX-2)
# COX-2 (from sheep placenta) is preincubated with test substance for 10 min at 4° C., then stimulated with arachidonic acid (5 μm) at 25° C. for 10 min. […] Determination is carried out 3 dilutions (10^−7, 10^−6, 10^−5 molar). The PGE2 concentrations are quantified by means of ELISA (see Mitchell J. A. et al. Proc. Nat. Acad. Sci 90: 11693-11697 (1993)).
# [5] = test system: TNF-α; test: Inhibition of LPS-stimulated cytokine secretion in whole blood (TNF-α); assay type: cell-based; conditions: human whole blood, LPS 1 μg/ml, 4 h; read-out: TNFα, Whole blood method (IC50 values)
# Experimental: (§3) Test System for Determining the Inhibition of LPS-stimulated Cytokine Secretion (TNF-α, IL-1β) in Whole Blood
# (§4) Fresh, human whole blood from healthy donors is preincubated with test substance for 25 min at 37° C. The cells are stimulated with LPS (1 μg/ml) for 4 h at 37° C. In the plasma supernatant which is isolated by centrifugation, the cytokines TNF-α, IL-1β, IL-6 and IL-8 are quantified by means of ELISA (see Inflamm. Res. 44, 269-274 (1995)).
# [6] = target: T3, 5-lipoxygenase (5-LO) (Homo sapiens, UniProt P09917); test: Inhibition of 5-lipoxygenase: LTB4 formation in human granulocytes stimulated with calcium ionophore A 23187, ELISA; assay type: cell-based; conditions: A 23187, LTB4 ELISA
# T3 construct: The source used for the 5-lipoxygenase is human granulocytes; endogenous in cells; host or cells: human granulocytes isolated from heparinised blood
# T3 sequence (P09917 1-674): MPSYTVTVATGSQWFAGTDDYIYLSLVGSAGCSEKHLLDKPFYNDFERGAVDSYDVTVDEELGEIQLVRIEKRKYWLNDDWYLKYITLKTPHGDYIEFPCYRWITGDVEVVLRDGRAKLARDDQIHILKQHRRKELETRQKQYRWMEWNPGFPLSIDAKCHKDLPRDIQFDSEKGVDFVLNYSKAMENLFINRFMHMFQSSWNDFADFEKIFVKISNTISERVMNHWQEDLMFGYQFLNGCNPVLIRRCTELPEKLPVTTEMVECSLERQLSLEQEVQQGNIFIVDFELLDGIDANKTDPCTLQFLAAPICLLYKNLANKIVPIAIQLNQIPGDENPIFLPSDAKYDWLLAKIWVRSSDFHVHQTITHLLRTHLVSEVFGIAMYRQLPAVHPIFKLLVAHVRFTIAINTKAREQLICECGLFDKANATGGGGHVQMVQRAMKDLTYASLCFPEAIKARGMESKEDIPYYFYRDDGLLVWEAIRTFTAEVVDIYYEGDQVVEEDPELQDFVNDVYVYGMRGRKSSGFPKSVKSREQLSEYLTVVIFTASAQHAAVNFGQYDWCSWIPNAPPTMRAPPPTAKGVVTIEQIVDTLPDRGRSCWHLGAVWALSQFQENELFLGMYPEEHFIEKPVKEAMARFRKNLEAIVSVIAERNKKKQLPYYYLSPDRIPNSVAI
# Experimental: Test System for Determining the Inhibition of 5-lipoxygenase (5-LO)
# The source used for the 5-lipoxygenase is human granulocytes. By stimulation with calcium ionophore A 23187, LTB4 (leukotriene B4) is formed from endogenous arachidonic acid. The granulocytes are isolated and the enzyme reaction is carried out according to known processes (see Arch. Pharm. Pharm. Med. Chem. 330, 307-312 (1997)).
# The blood protected from clotting by heparin is centrifuged on a discontinuous Percoll® gradient and the granulocyte layer is removed by pipette. After lysis of the erythrocytes, the granulocytes are washed a number of times and then adjusted to a specific cell count. The enzyme reaction is then started in the presence or absence of the test substance after addition of Ca^2+ using calcium ionophore A 23187. The synthesis of the leukotrienes is stopped after 1.5 minutes. The samples are centrifuged off and the supernatant is diluted. LTB4 is determined quantitatively by means of ELISA.
# [7] = test system: IL-1β; test: Inhibition of LPS-stimulated cytokine secretion in whole blood (IL-1β); assay type: cell-based; conditions: human whole blood, LPS 1 μg/ml, 4 h; read-out: IL-1β, Whole blood method (IC50 values)
# Experimental: as §3, §4
SMILES,IC50 [1],IC50 [2],IC50 [3],IC50 [4],IC50 [5],IC50 [6],IC50 [7]
"CSc1ccc(CSc2nc(-c3ccncc3)c(-c3ccc(F)cc3)[nH]2)cc1 [Example 1, 5-(4-Fluorophenyl)-2-[(4-methylthio)benzylthio]-4-(4-pyridyl)imidazole]",3.4 µM,> 100 µM,10 µM,6.1 µM,30 µM,0.065 µM,30 µM
"C[S+]([O-])c1ccc(CSc2nc(-c3ccncc3)c(-c3ccc(F)cc3)[nH]2)cc1 (stereo not shown) [Example 2, 5-(4-Fluorophenyl)-2-[(4-methylsulfinyl)benzylthio]-4-(4-pyridyl)imidazole]",,2.3 µM,6.8 µM,6.3 µM,16 µM,10 µM,2.9 µM
"CS(=O)(=O)c1ccc(CSc2nc(-c3ccncc3)c(-c3ccc(F)cc3)[nH]2)cc1 [Example 3, 5-(4-Fluorophenyl)-2-[(4-methylsulfonyl)benzylthio]-4-(4-pyridyl)imidazole]",,> 100 µM,4 µM,,19 µM,0.8 µM,1.2 µM
"NS(=O)(=O)c1ccc(CCSc2nc(-c3ccncc3)c(-c3ccc(F)cc3)[nH]2)cc1 [Example 4, 2-[2-(4-Aminosulfonylphenyl)ethylthio]-5-(4-fluorophenyl)-4-(4-pyridyl)imidazole]",2.2 µM,9.3 µM,3.3 µM,7 µM,,0.085 µM,
"NS(=O)(=O)c1ccc(CSc2nc(-c3ccncc3)c(-c3ccc(F)cc3)[nH]2)cc1 [Example 5, 2-[(4-Aminosulfonylphenyl)methylthio]-5-(4-fluorophenyl)-4-(4-pyridyl)imidazole]",0.038 µM,18 µM,3.1 µM,10 µM,,2.8 µM,
"CSc1ccc(CCSc2nc(-c3ccncc3)c(-c3ccc(F)cc3)[nH]2)cc1 [Example 6, 2-[2-(4-Methylthiophenyl)ethylthio]-5-(4-fluorophenyl)4-(4-pyridyl)imidazole]",6.5 µM,58 µM,6 µM,3 µM,,< 0.01 µM,
"CS(=O)(=O)c1ccc(CCSc2nc(-c3ccncc3)c(-c3ccc(F)cc3)[nH]2)cc1 [Example 7, 5-(4-Fluorophenyl)-2-[2-(4-methylsulfonylphenyl)ethylthio]-4-(4-pyridyl)imidazole]",,21 µM,14 µM,,,,
"C[S+]([O-])c1cccc(CSc2nc(-c3ccncc3)c(-c3ccc(F)cc3)[nH]2)c1 (stereo not shown) [Example 9, 5-(4-Fluorophenyl)-2-[(3-methylsulfinylphenyl)methylthio]-4-(4-pyridyl)-1H-imidazole]",,,,,24 µM,,1.9 µM
"C[S+]([O-])c1ccccc1CSc1nc(-c2ccncc2)c(-c2ccc(F)cc2)[nH]1 (stereo not shown) [Example 10, 5-(4-Fluorophenyl)-2-[(2-methylsulfinylphenyl)methylthio]-4-(4-pyridyl)-1H-imidazole]",,,,,48 µM,,4 µM
"C[S+]([O-])c1cc(CSc2nc(-c3ccncc3)c(-c3ccc(F)cc3)[nH]2)ccc1O (stereo not shown) [Example 12, 5-(4-Fluorophenyl)-2-[(4-hydroxy-3-methylsulfinylphenyl)methylthio]-4-(4-pyridyl)-1H-imidazole]",,,,,9 µM,,12.1 µM
"C[S+]([O-])c1ccc(O)c(CSc2nc(-c3ccncc3)c(-c3ccc(F)cc3)[nH]2)c1 (stereo not shown) [Example 16, 2-[(2-Hydroxy-5-methylsulfinylphenyl)methylthio]-5-(4-fluorophenyl)-4-(4-pyridyl)-1H-imidazole]",,0.64 µM,4.2 µM,,76 µM,,13 µM
"CS(=O)(=O)c1ccc(-c2nc(-c3ccc(F)cc3)c(-c3ccncc3)[nH]2)cc1 [Reference B, reference compound]",,7.5 µM,,,,,
